Results as given in patent US7435846B2, “Absorption and bioavailability of carotenoids, formulations and applications” (Industrial Organica, S.A. De C.V., priority 2006, dated 2008).

Parameters: species or system human
Details: in vivo
Protocol: Ten (10) healthy non smoking students (ranging in age from 22-27 years), were subjected to the following two treatments:
(A) Four (4) weeks of ingesting one gelatin capsule at their noonday meal, containing 20 mg of crystalline lutein dispersed in soybean oil and after a 12 hours fast (overnight) blood samples were taken early the next morning for plasma analysis.
(B) After a two (2) week interval washout period, the same group of subjects were given, during a period of four (4) weeks, a gelatin capsule containing a micellar dispersion of lutein diacetate (prepared as described in example 3) in soybean oil. Each capsule contained 24.2 mg of lutein diacetate and was ingested at lunch time. After a twelve (12) hour fast, blood samples were collected in the early morning of the next day for plasma analysis.

ratio of the average absorption of the lutein diacetate divided by the average absorption of the free lutein: 2.81 times
Substance: lutein diacetate
